The text below walks through data of patent publication US20140090094A1, “MODULATORS OF SLC22A7” (BAYER INTELLECTUAL PROPERTY GmbH, priority 2011, published 2014).

SMILES strings stand for the structures. Values joined by “and” are separate entries in the source; they are usually repeats but may differ in a detail not shown here. Identical values can stand only once.

For one assay, the target named is T1, OAT2h (Homo sapiens, UniProt Q9Y694).
T1 construct: expressed in transfected cells; host or cells: 293 cells (HEK-293), pEBTetD/OAT2h, doxycycline-inducible
T1 sequence (Q9Y694 1-546 isoform Q9Y694-2): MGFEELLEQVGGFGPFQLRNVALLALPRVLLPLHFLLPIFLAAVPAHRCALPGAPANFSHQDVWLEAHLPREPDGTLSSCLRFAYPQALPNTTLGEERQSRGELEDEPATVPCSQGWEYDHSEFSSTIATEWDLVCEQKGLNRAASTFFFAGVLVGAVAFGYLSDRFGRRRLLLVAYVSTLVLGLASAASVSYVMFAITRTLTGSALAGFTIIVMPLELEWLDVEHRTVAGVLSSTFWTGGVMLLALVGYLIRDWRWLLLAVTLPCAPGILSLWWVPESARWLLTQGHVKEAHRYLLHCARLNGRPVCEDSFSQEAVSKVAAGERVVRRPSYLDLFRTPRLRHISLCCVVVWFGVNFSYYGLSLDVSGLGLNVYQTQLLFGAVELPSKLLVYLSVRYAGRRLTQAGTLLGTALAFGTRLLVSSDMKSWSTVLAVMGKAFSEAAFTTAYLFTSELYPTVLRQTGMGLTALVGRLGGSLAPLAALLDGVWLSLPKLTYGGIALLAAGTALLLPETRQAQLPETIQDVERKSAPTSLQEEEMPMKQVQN
In words: intracellular glutamate content of 293 cells expressing OAT2h versus uninduced control cells. As to conditions: n=2. Type of assay: cell-based.

Assay [1] has as its target T2, OAT2r (Rattus norvegicus, UniProt Q5RLM2).
T2 construct: expressed in transfected cells
T2 sequence (Q5RLM2 1-535): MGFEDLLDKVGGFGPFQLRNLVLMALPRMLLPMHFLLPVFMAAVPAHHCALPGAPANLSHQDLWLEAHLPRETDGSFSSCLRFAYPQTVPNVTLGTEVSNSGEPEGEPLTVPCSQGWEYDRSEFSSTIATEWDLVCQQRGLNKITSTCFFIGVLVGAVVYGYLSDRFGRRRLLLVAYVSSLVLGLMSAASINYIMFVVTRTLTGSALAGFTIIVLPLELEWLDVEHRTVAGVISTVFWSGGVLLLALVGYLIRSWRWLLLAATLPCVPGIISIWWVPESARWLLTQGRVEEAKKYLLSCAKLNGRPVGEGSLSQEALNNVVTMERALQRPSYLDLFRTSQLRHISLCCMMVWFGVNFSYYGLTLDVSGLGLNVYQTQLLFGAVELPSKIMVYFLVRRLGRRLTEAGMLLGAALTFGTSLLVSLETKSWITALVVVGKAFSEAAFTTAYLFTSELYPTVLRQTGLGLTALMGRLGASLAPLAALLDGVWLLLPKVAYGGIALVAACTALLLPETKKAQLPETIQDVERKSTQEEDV
In words: intracellular glutamate content of 293 cells expressing OAT2r versus uninduced control cells. To be noted: n=4. Type of assay: cell-based.

The target in another assay is OAT2h splice variant (Homo sapiens, UniProt Q9Y694). As to conditions: 24 h incubation, 100 μmol/l in uptake buffer. How it is done:
(§1) A substrate search by LC-MS difference shading was performed with 293 cells stably transfected to express OAT2 from rat. […] To verify that trigonelline is directly transported by OAT2 and not just increased indirectly, initial rates of uptake (1 min, 37° C.) of trigonelline (10 μmol/l) were determined by LC-MS/MS.
After centrifugation (1 min, 16000×g, 20° C.) of thawed lysates, 100 μl of the supernatant was mixed with either 10 μl unlabeled MPP+ iodide (0.5 ng/μl) or biphenyl-4-carboxylic acid (Sigma-Aldrich) as internal standard. Of this mixture, […] were analyzed by LCMS/MS on a triple quadrupole mass spectrometer (4000 Q TRAP, Applied Biosystems, Darmstadt, Germany). […] For quantification (scan time 150 ms), the optimal collision energy for argon-induced fragmentation in the second quadrupole was determined for each analyte. […] Sample analyte content was calculated from the analyte response ratio and the slope of the calibration curve, obtained by linear regression. With LC-MS quantitation, solute content of cell lysates was determined for 4 conditions (paired dishes, incubation time 1 min): a) transporter expression on, uptake buffer; b) expression off, uptake buffer; c) expression on, substrate in uptake buffer; d) expression off, substrate in uptake buffer. Acute uptake mediated by heterologously expressed carrier was then calculated as (c−a)−(d−b). […]

Assay [2] addresses T2, OAT2r. Nature of the assay: 24 h accumulation in lysates of OAT2r-expressing versus control cells (LC-MS/MS). Type of assay: cell-based. To be noted: 24 h incubation, compound at 100 μmol/l. As for the experimental part:
as §1
With trigonelline as substrate lead, compounds wholly or partly related in structure were analyzed for transport by OAT2 from rat.
After centrifugation (1 min, 16000×g, 20° C.) of thawed lysates, 100 μl of the supernatant was mixed with either 10 μl unlabeled MPP+ iodide (0.5 ng/μl) or biphenyl-4-carboxylic acid (Sigma-Aldrich) as internal standard. Of this mixture, […] were analyzed by LCMS/MS on a triple quadrupole mass spectrometer (4000 Q TRAP, Applied Biosystems, Darmstadt, Germany). […] Atmospheric pressure ionization with positive or negative electrospray was used. For quantification (scan time 150 ms), the optimal collision energy for argon-induced fragmentation in the second quadrupole was determined for each analyte. […] Linear calibration curves were constructed from at least six standards which were prepared using control cell lysates as solvent. Sample analyte content was calculated from the analyte response ratio and the slope of the calibration curve, obtained by linear regression. With LC-MS quantitation, solute content of cell lysates was determined for 4 conditions ([…]): a) transporter expression on, uptake buffer; b) expression off, uptake buffer; c) expression on, substrate in uptake buffer; d) expression off, substrate in uptake buffer. Acute uptake mediated by heterologously expressed carrier was then calculated as (c−a)−(d−b). This approach takes into account endogenous solute content and non-specific uptake. Protein was measured by the BCA assay (Pierce) with bovine serum albumin as standard. The protein content of MS samples was estimated from 3 matched cell dishes.

Consider `N[C@@H](CCC(=O)O)C(=O)O` [glutamate], for which the “intracellular glutamate content versus uninduced control cells (factor f)” value on OAT2h turned out to be 0.60±0.09; at OAT2r [1], 0.55±0.11.

With `C[n+]1cccc(C(=O)[O-])c1` [trigonelline], the “increase in cell lysates versus control cells (factor f)” value at OAT2h splice variant was 3.9. Moreover, on OAT2r [2], the “increase in OAT2r cell lysates versus control cells (factor f)” value was 8.1 and 4.7.
